Measured values as given in ChEMBL document CHEMBL4004838, “Design and synthesis of novel phenyl -1, 4-beta-carboline-hybrid molecules as potential anticancer agents” (Eur J Med Chem, 2017).
Active and inactive are the calls of the source. The calls are words filed in the database; no cut-off is given here.

How the values were obtained:
Bos taurus = organism: Bos taurus; assay: Induction of calf thymus DNA intercalation assessed as compound-DNA complex formation at 5 uM incubated for 1 hr by ethidium bromide staining based agarose gel electrophoresis relative to control
CCRF-CEM = assay: Growth inhibition of human CCRF-CEM cells incubated for 48 hrs by sulforhodamine B assay; format: functional
HCT-15 = assay: Growth inhibition of human HCT15 cells incubated for 48 hrs by sulforhodamine B assay; format: functional; settings: HCT-15, 48 h
SW-620 = assay: Growth inhibition of human SW620 cells incubated for 48 hrs by sulforhodamine B assay; format: functional; settings: SW-620, 48 h
MDA-MB-435 = assay: Growth inhibition of human MDA-MB-435 cells incubated for 48 hrs by sulforhodamine B assay; format: functional; settings: MDA-MB-435, 48 h
SK-MEL-28 = assay: Growth inhibition of human SK-MEL-28 cells incubated for 48 hrs by sulforhodamine B assay; format: functional; settings: SK-MEL-28, 48 h
SK-MEL-5 = assay: Growth inhibition of human SK-MEL-5 cells incubated for 48 hrs by sulforhodamine B assay; format: functional; settings: SK-MEL-5, 48 h
A498 = assay: Growth inhibition of human A498 cells incubated for 48 hrs by sulforhodamine B assay; format: functional; settings: A498, 48 h
HCT-116 = assay: Growth inhibition of human HCT116 cells assessed as cell growth at 0.01 uM incubated for 48 hrs by sulforhodamine B assay relative to control; format: functional; settings: HCT-116, 48 h, read-out: Activity
OVCAR-8 = assay: Growth inhibition of human OVCAR8 cells assessed as cell growth at 0.01 uM incubated for 48 hrs by sulforhodamine B assay relative to control; format: functional; settings: OVCAR-8, 48 h, read-out: Activity
PC-3 = assay: Growth inhibition of human PC3 cells assessed as cell growth at 0.01 uM incubated for 48 hrs by sulforhodamine B assay relative to control; format: functional; settings: PC-3, 48 h, read-out: Activity
HL-60(TB) = assay: Growth inhibition of human HL-60(TB) cells assessed as cell growth at 0.1 uM incubated for 48 hrs by sulforhodamine B assay relative to control; format: functional; settings: HL-60, 48 h, read-out: Activity
A549 = assay: Growth inhibition of human A549/ATCC cells assessed as cell growth at 0.1 uM incubated for 48 hrs by sulforhodamine B assay relative to control; format: functional; settings: A549, 48 h, read-out: Activity
HOP-92 = assay: Growth inhibition of human HOP92 cells assessed as cell growth at 0.1 uM incubated for 48 hrs by sulforhodamine B assay relative to control; format: functional; settings: HOP-92, 48 h, read-out: Activity
LOX IMVI = assay: Growth inhibition of human LOXIMVI cells assessed as cell growth at 0.1 uM incubated for 48 hrs by sulforhodamine B assay relative to control; format: functional; settings: read-out: Activity
M14 = assay: Growth inhibition of human M14 cells assessed as cell growth at 0.1 uM incubated for 48 hrs by sulforhodamine B assay relative to control; format: functional; settings: M14, 48 h, read-out: Activity
SK-MEL-2 [1] = assay: Growth inhibition of human SK-MEL-2 cells assessed as cell growth at 0.1 uM incubated for 48 hrs by sulforhodamine B assay relative to control; format: functional; settings: SK-MEL-2, 48 h, read-out: Activity
UO-31 = assay: Growth inhibition of human UO31 cells assessed as cell growth at 0.1 uM incubated for 48 hrs by sulforhodamine B assay relative to control; format: functional; settings: UO-31, 48 h, read-out: Activity
HCC 2998 = assay: Growth inhibition of human HCC2998 cells assessed as cell growth at 1 uM incubated for 48 hrs by sulforhodamine B assay relative to control; format: functional; settings: HCC 2998, 48 h, read-out: Activity
SNB-75 = assay: Growth inhibition of human SNB75 cells assessed as cell growth at 1 uM incubated for 48 hrs by sulforhodamine B assay relative to control; format: functional; settings: SNB-75, 48 h, read-out: Activity
Malme-3M = assay: Growth inhibition of human MALME-3M cells assessed as cell growth at 1 uM incubated for 48 hrs by sulforhodamine B assay relative to control; format: functional; settings: read-out: Activity
OVCAR-5 = assay: Growth inhibition of human OVCAR5 cells assessed as cell growth at 1 uM incubated for 48 hrs by sulforhodamine B assay relative to control; format: functional; settings: OVCAR-5, 48 h, read-out: Activity
RXF 393 = assay: Growth inhibition of human RXF393 cells assessed as cell growth at 1 uM incubated for 48 hrs by sulforhodamine B assay relative to control; format: functional; settings: RXF 393, 48 h, read-out: Activity
MCF7 = assay: Growth inhibition of human MCF7 cells assessed as cell growth at 1 uM incubated for 48 hrs by sulforhodamine B assay relative to control; format: functional; settings: MCF7, 48 h, read-out: Activity
MDA-MB-231 = assay: Growth inhibition of human MDA-MB-231 cells assessed as cell growth at 1 uM incubated for 48 hrs by sulforhodamine B assay relative to control; format: functional; settings: MDA-MB-231, 48 h, read-out: Activity
BT-549 = assay: Growth inhibition of human BT549 cells assessed as cell growth at 1 uM incubated for 48 hrs by sulforhodamine B assay relative to control; format: functional; settings: BT-549, 48 h, read-out: Activity
MDA-MB-468 = assay: Growth inhibition of human MDA-MB-468 cells assessed as cell growth at 1 uM incubated for 48 hrs by sulforhodamine B assay relative to control; format: functional; settings: MDA-MB-468, 48 h, read-out: Activity
SK-MEL-2 [2] = assay: Growth inhibition of human SK-MEL-2 cells assessed as cell growth at 100 uM incubated for 48 hrs by sulforhodamine B assay relative to control; format: functional; settings: SK-MEL-2, 48 h, read-out: Activity
CAKI-1 = assay: Growth inhibition of human Caki1 cells assessed as cell growth at 100 uM incubated for 48 hrs by sulforhodamine B assay relative to control; format: functional; settings: CAKI-1, 48 h, read-out: Activity
[3] = read-out: LC50 (the source's name)
[4] = read-out: pLC50 (the source's name) (converted)

SMILES: c1ccc2[nH]c(-c3ccc(-c4nccc5c4[nH]c4ccccc45)cc3)nc2c1
- Activity (Bos taurus): Active
- GI50 (CCRF-CEM; read-out: GI50): 3.12 µM
- CC50 (CCRF-CEM; [3]): > 1 µM
- TGI (CCRF-CEM; read-out: TGI): 9.12 µM
- GI50 (CCRF-CEM; read-out: pGI50 (converted)): 3.09 µM
- CC50 (CCRF-CEM; [4]): > 100 µM
- TGI (CCRF-CEM; read-out: pTGI (converted)): 9.12 µM
- GI50 (HCT-15; read-out: GI50): 2.22 µM
- LC50 (HCT-15; read-out: LC50): 3 µM
- TGI (HCT-15; read-out: TGI): 5.61 µM
- GI50 (HCT-15; read-out: pGI50 (converted)): 2.24 µM
- LC50 (HCT-15; read-out: pLC50 (converted)): 30.2 µM
- TGI (HCT-15; read-out: pTGI (converted)): 5.62 µM
- GI50 (SW-620; read-out: GI50): 2.79 µM
- CC50 (SW-620; [3]): > 1 µM
- TGI (SW-620; read-out: TGI): 8.48 µM
- GI50 (SW-620; read-out: pGI50 (converted)): 2.82 µM
- CC50 (SW-620; [4]): > 100 µM
- TGI (SW-620; read-out: pTGI (converted)): 8.51 µM
- GI50 (MDA-MB-435; read-out: GI50): 1.92 µM
- CC50 (MDA-MB-435; [3]): 9.51 µM
- TGI (MDA-MB-435; read-out: TGI): 4.27 µM
- GI50 (MDA-MB-435; read-out: pGI50 (converted)): 1.91 µM
- CC50 (MDA-MB-435; [4]): 9.55 µM
- TGI (MDA-MB-435; read-out: pTGI (converted)): 4.27 µM
- GI50 (SK-MEL-28; read-out: GI50): 1.96 µM
- CC50 (SK-MEL-28; [3]): 7.2 µM
- TGI (SK-MEL-28; read-out: TGI): 3.75 µM
- GI50 (SK-MEL-28; read-out: pGI50 (converted)): 1.95 µM
- CC50 (SK-MEL-28; [4]): 7.24 µM
- TGI (SK-MEL-28; read-out: pTGI (converted)): 3.72 µM
- CC50 (SK-MEL-5; [3]): 4.42 µM
- GI50 (SK-MEL-5; read-out: pGI50 (converted)): 3.72 µM
- CC50 (SK-MEL-5; [4]): 44.7 µM
- TGI (SK-MEL-5; read-out: pTGI (converted)): 14.5 µM
- GI50 (A498; read-out: GI50): 1.14 µM
- CC50 (A498; [3]): 5.68 µM
- GI50 (A498; read-out: pGI50 (converted)): 11.5 µM
- CC50 (A498; [4]): 56.2 µM
- TGI (A498; read-out: pTGI (converted)): 25.7 µM
- growth at 0.01 µM (HCT-116): 92%
- growth at 0.01 µM (OVCAR-8): 100%
- growth at 0.01 µM (PC-3): 98%
- growth at 0.1 µM (HL-60(TB)): 92%
- growth at 0.1 µM (A549): 98%
- growth at 0.1 µM (HOP-92): 93%
- growth at 0.1 µM (LOX IMVI): 92%
- growth at 0.1 µM (M14): 98%
- growth at 0.1 µM (SK-MEL-2 [1]): 97%
- growth at 0.1 µM (UO-31): 91%
- growth at 1 µM (HCC 2998): 96%
- growth at 1 µM (SNB-75): 74%
- growth at 1 µM (Malme-3M): 96%
- growth at 1 µM (OVCAR-5): 96%
- growth at 1 µM (RXF 393): 104%
- growth at 1 µM (MCF7): 91%
- growth at 1 µM (MDA-MB-231): 99%
- growth at 1 µM (BT-549): 90%
- growth at 1 µM (MDA-MB-468): 98%
- growth at 100 µM (SK-MEL-2 [2]): 64%
- growth at 100 µM (CAKI-1): 76%

SMILES: c1ccc2c3c([nH]c2c1)C(c1ccc(C2NCCc4c2[nH]c2ccccc42)cc1)NCC3 (racemic)
- Activity (Bos taurus): Active
- CC50 (CCRF-CEM; [3]): 1.22 µM
- GI50 (CCRF-CEM; read-out: pGI50 (converted)): 0.457 µM
- CC50 (CCRF-CEM; [4]): 12.3 µM
- TGI (CCRF-CEM; read-out: pTGI (converted)): 2.04 µM
- GI50 (HCT-15; read-out: pGI50 (converted)): 0.427 µM
- TGI (HCT-15; read-out: pTGI (converted)): 1.78 µM
- GI50 (SW-620; read-out: GI50): 1.85 µM
- CC50 (SW-620; [3]): 6.39 µM
- TGI (SW-620; read-out: TGI): 3.44 µM
- GI50 (SW-620; read-out: pGI50 (converted)): 0.186 µM
- CC50 (SW-620; [4]): 0.646 µM
- CC50 (MDA-MB-435; [3]): 3.75 µM
- GI50 (MDA-MB-435; read-out: pGI50 (converted)): 0.363 µM
- CC50 (MDA-MB-435; [4]): 3.72 µM
- TGI (MDA-MB-435; read-out: pTGI (converted)): 1.26 µM
- GI50 (SK-MEL-28; read-out: GI50): 1.68 µM
- CC50 (SK-MEL-28; [3]): 5.99 µM
- TGI (SK-MEL-28; read-out: TGI): 3.18 µM
- GI50 (SK-MEL-28; read-out: pGI50 (converted)): 1.7 µM
- CC50 (SK-MEL-28; [4]): 6.03 µM
- TGI (SK-MEL-28; read-out: pTGI (converted)): 3.16 µM
- GI50 (SK-MEL-5; read-out: GI50): 1.7 µM
- CC50 (SK-MEL-5; [3]): 5.75 µM
- TGI (SK-MEL-5; read-out: TGI): 3.13 µM
- GI50 (SK-MEL-5; read-out: pGI50 (converted)): 1.7 µM
- CC50 (SK-MEL-5; [4]): 5.75 µM
- TGI (SK-MEL-5; read-out: pTGI (converted)): 3.16 µM
- GI50 (A498; read-out: GI50): 1.64 µM
- CC50 (A498; [3]): 36.9 µM
- TGI (A498; read-out: TGI): 8.87 µM
- GI50 (A498; read-out: pGI50 (converted)): 1.66 µM
- CC50 (A498; [4]): 37.2 µM
- TGI (A498; read-out: pTGI (converted)): 8.91 µM
- growth at 0.01 µM (HCT-116): 91%
- growth at 0.01 µM (OVCAR-8): 101%
- growth at 0.01 µM (PC-3): 96%
- growth at 0.1 µM (HL-60(TB)): 116%
- growth at 0.1 µM (A549): 95%
- growth at 0.1 µM (HOP-92): 87%
- growth at 0.1 µM (LOX IMVI): 91%
- growth at 0.1 µM (M14): 94%
- growth at 0.1 µM (SK-MEL-2 [1]): 94%
- growth at 0.1 µM (UO-31): 74%
- growth at 1 µM (HCC 2998): 10%
- growth at 1 µM (SNB-75): 46%
- growth at 1 µM (Malme-3M): 82%
- growth at 1 µM (OVCAR-5): 85%
- growth at 1 µM (RXF 393): 69%
- growth at 1 µM (MCF7): 22%
- growth at 1 µM (MDA-MB-231): 3%
- growth at 1 µM (BT-549): 85%
- growth at 1 µM (MDA-MB-468): 11%
- growth at 100 µM (SK-MEL-2 [2]): 93%
- growth at 100 µM (CAKI-1): -98%
